According to patent US10111883B1, “Selective P2X3 modulators” (BELLUS Health inc., priority 2017, dated 2018):

Key:
taste function = assay: Two bottle taste study (water vs quinine); assay type: in vivo, rat; conditions: 10 or 20 mg/kg intraperitoneally; for effect on taste function: rat; for quinine drunk relative to control: rats water-fasted overnight, volume measured for 15 minutes at Cmax
Experimental: A rat taste model was used to compare the effect of Compound 1 on taste function with that of AF-219. Animals were water-fasted overnight and presented with one bottle of water and one bottle of (bitter-tasting) quinine at the time corresponding to the maximum plasma concentration of study drugs; and the volume of liquid consumed from each bottle was measured for 15 minutes. Treatments (control, Compound 1 (10 or 20 mg/kg) or AF-219 (10 or 20 mg/kg)) were administered intraperitoneally in two groups of 10 rats.

[1] = test system: guinea pig cough model (citric acid and histamine); assay: Guinea pig cough response model (dose response); assay type: in vivo; conditions: for reduction in cough vs. control: 2 hours prior to citric acid and histamine, coughs counted 15 minutes, statistically significant; for reduction in cough frequency as compared to the control (dose dependence): 0.3, 3 and 30 mg/kg oral
Text: The anti-tussive effect of Compound 1 was compared to that of AF-219 in a guinea pig cough model. Guinea pigs are the most commonly used animal in cough studies for both the investigation of the cough reflex at a fundamental level and for use as an antitussive screen (Mackensie et al., Drug Discovery Today, 2004, 1, 297-302). In the guinea pig, it was shown that exposure to ATP and histamine aerosols increases cough responses to tussive stimuli via P2X3 receptor-mediated mechanisms (Kamei et al., Eur J Pharmacol (2005) 528: 158-161; Kamei et al., Eur J Pharmacol (2006) 547: 160-164).
(§1) Treatments (control, Compound 1 (0.3, 3 and 30 mg/kg) or AF-219 (0.3, 3 or 30 mg/kg)) were administered orally in seven groups of 6 animals 2 hours prior to tussive agent exposure (citric acid and histamine) and the number of coughs were counted for a period of 15 minutes.

[2] = test system: guinea pig cough model (citric acid and histamine); assay: Time course study in guinea pig cough response model; assay type: in vivo; conditions: single oral 30 mg/kg; for anti-tussive effect (significance): 8 hours post-dose
Experimental: as §1
Using the same guinea pig cough model as described in Example 2, a time course study was conducted to assess the duration of the anti-tussive effect of Compound 1 and AF-219 following the administration of a single oral 30 mg/kg dose. In this study, animals in groups of 6 were exposed to tussive agents (citric acid and histamine) at various times after the administration of the study drugs (2, 4, 6, 8 and 12 hours post-dose for Compound 1; and 2 and 8 hours post-dose for AF-219) and the number of coughs were measured for 15 minutes.

[3] = test system: P2X3 and P2X2/P2X3 channel; assay: Fluo-8 calcium assay, antagonism of P2X3 versus P2X2/P2X3 channels in HEK293 cells; assay type: cell-based; conditions: human P2X3 and P2X2/P2X3 in HEK293 cells, meATP stimulation; IC50s only in FIG. 3
Experimental: The ability of the compounds described herein and Gefapixant (also known as AF-219) to act as an antagonist of the P2X3 and P2X2/P2X3 channel (encoded by the human P2RX2 and P2RX3 genes, stably expressed in HEK293 cells) was evaluated with a Fluo-8 calcium kit. Compounds 1, 2, 9, 11, 15, and AF-219 were evaluated at twelve concentrations.
For the antagonist effect assessment, the cells were pre-incubated with Compounds 1, 2, 9, 11, 15, and AF-219 for 20 minutes, then stimulated with the P2X3 and P2X2/P2X3 agonist α,β-methyleneATP (meATP) at final concentrations of 3 μM and 30 μM. Four minutes fifty seconds after addition of meATP, ionomycin was added at a final concentration of 5 μM in order to obtain the maximum calcium influx and fluorescence signal possible from the cells. Fluorescence was recorded continuously for 10 minutes, starting 10 seconds prior to the addition of meATP.

| Compound | effect on taste function (taste function) | quinine drunk relative to control (taste function) | reduction in cough vs. control ([1]; 30 mg/kg oral) | reduction in cough frequency as compared to the control (dose dependence) [1] | duration of anti-tussive effect [2] | reduction in cough frequency compared to control (significance) ([2]; 2 hours post-dose) | anti-tussive effect (significance) [2] | selectivity as P2X3 antagonist (P2X3 versus P2X2/3) [3] | other results |
| --- | --- | --- | --- | --- | --- | --- | --- | --- | --- |
| CNC(=O)c1cc(F)c(-c2nc3cc(C)ccn3c2C[C@H]2CN(C(=O)OC)CCO2)c(F)c1 [Compound 1] | did not | did not drink more quinine than the control animals | 52% | comparable dose-dependent reduction in cough frequency | comparable duration of effect | statistically significant | no longer significant | selective P2X3 antagonists | reduction in cough vs. control ([1]; 3 mg/kg oral): 39%; reduction in cough frequency compared to control (significance) ([2]; 4 hours post-dose): statistically significant; reduction in cough frequency compared to control (significance) ([2]; 6 hours post-dose): statistically significant |
| COc1cc(C(C)C)c(Oc2cnc(N)nc2N)cc1S(N)(=O)=O [AF-219, Gefapixant, reference compound] | altered taste function | approximately 5 times | 45% | comparable dose-dependent reduction in cough frequency | comparable duration of effect | statistically significant | no longer significant | – | – |
| CNC(=O)c1cc(F)c(-c2nc3cc(C)ccn3c2C[C@H]2CN(C(C)=O)CCO2)cc1F [Compound 9] | – | – | – | – | – | – | – | selective P2X3 antagonists | – |
| CNC(=O)c1ccc(-c2nc3cc(Cl)ccn3c2C[C@H]2CN(C(C)=O)CCO2)c(C)c1 [Compound 11] | – | – | – | – | – | – | – | selective P2X3 antagonists | – |
| CCC(=O)N1CCO[C@@H](Cc2c(-c3c(F)cc(C(=O)NC)cc3F)nc3cc(C)ccn23)C1 [Compound 2] | – | – | – | – | – | – | – | selective P2X3 antagonists | – |
| CNC(=O)c1cc(F)c(-c2nc3cc(Cl)ccn3c2C[C@H]2CN(C(C)=O)CCO2)c(F)c1 [Compound 15] | – | – | – | – | – | – | – | selective P2X3 antagonists | – |
